Experimental data from patent publication US9296722B2, “Azolyl urea compounds and methods of use thereof” (Ambit Biosciences Corporation, priority 2010, dated 2016).

Key:
CSF1R (human) = target: T1, CSF1R (human) (Homo sapiens, UniProt P07333); experiment: Competition binding assay, CSF1R (human) Kd
T1 construct: made in house; host or cells: T7 phage display or HEK-293 cells (alternatives, not resolved per kinase)
Protocol: (§1) The liganded beads were blocked with excess biotin and washed with blocking buffer (SeaBlock (Pierce), 1% BSA, 0.05% Tween 20, 1 mM DTT) to remove unbound ligand and to reduce non-specific binding. […] Test compounds were prepared as 100× stocks in DMSO and diluted into the aqueous environment. Kds were determined using an eleven point threefold serial dilutions. DMSO or control compounds were was added to control assays lacking a test compound. […] The kinase concentration in the eluates was measured by quantitative PCR.

CSF1R (mouse) = target: T2, CSF1R (mouse) (Mus musculus, UniProt P09581); experiment: Competition binding assay, CSF1R (mouse) Kd
T2 construct: made in house; host or cells: T7 phage display or HEK-293 cells (alternatives, not resolved per kinase)
T2 sequence (P09581 20-977): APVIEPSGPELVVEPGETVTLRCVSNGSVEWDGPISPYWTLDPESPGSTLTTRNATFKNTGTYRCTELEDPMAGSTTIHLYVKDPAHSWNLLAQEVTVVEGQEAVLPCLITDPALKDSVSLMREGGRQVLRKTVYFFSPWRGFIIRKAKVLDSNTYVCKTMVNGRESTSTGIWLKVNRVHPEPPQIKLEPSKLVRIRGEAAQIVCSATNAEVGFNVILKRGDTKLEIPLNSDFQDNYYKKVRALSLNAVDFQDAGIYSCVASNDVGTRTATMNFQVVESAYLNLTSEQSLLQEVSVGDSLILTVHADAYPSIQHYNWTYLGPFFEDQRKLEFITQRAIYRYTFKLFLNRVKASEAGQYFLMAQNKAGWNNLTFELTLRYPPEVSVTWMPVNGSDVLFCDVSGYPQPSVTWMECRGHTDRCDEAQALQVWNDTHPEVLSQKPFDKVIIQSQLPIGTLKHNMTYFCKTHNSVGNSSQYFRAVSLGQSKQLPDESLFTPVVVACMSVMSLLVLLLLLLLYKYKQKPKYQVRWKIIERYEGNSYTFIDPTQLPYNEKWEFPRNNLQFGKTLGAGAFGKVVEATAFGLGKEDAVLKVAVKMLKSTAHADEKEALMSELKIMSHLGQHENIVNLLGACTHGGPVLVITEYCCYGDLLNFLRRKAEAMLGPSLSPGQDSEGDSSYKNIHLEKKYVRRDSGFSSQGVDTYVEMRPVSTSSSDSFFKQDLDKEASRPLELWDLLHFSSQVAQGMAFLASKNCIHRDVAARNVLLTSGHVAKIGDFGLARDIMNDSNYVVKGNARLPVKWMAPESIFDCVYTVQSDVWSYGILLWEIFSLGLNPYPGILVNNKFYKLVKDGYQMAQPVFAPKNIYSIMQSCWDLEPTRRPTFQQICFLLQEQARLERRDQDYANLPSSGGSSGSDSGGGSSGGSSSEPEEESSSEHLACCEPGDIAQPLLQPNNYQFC
Protocol: as §1

M-NFS-60 cells = experiment: M-NFS-60 cell proliferation assay; type: cell-based, mouse; design: CSF1R Cell Proliferation (M-NFS-60) IC50 (nM): scale not given here; settings: 72 hours incubation, Alamar Blue, M-CSF-dependent cells; for IC50: Mus musculus, read-out: CSF1R Cell Proliferation (M-NFS-60) IC50
Protocol: In certain embodiments, the compounds disclosed herein are tested in an M-NFS-60 cell proliferation assay to determine their cellular potency against CSF-1R. M-NFS-60s are mouse monocytic cells that depend on the binding of the ligand M-CSF to its receptor, CSF-1R, to proliferate Inhibition of CSF-1R kinase activity will cause reduced growth and/or cell death. This assay assesses the potency of compounds as CSF-1R inhibitors by measuring the reduction of Alamar Blue reagent by viable cells. An exemplary assay is described in the Examples section.
The compounds disclosed herein were tested in an M-NFS-60 cell proliferation assay to determine their cellular potency against CSF1R. M-NFS-60s are mouse monocytic cells that depend on the binding of the ligand M-CSF to its receptor, CSF1R, to proliferate Inhibition of CSF1R kinase activity will cause reduced growth and/or cell death. This assay assesses the potency of compounds as CSF1R inhibitors by measuring the reduction of Alamar Blue reagent by viable cells.
On day one of the experiment, M-NFS-60 cells were maintained in RPMI complete medium (Omega Scientific) plus 10% FBS supplemented with 20 ng/mL of M-CSF (R&D Systems). 96-well TC-treated, flat bottom plates were seeded at 10,000 cell/well at a volume of 100 μL per well. The cells were cultured overnight at 37° C. under 5% CO2.
On day two, compounds were added to the cells at 9 different concentrations, with half-log intervals alongside a control reference compound serving as a positive control. Final DMSO concentration was kept at 0.5% for a final volume of 200 μL. The compounds were allowed to incubate with the cells for 72 hours at 37° C. under 5% CO2.
On day five of the experiment, 40 μl of Alamar Blue reagent was added to each well and allowed to incubate for 3 hours. Alamar Blue fluorescence was read using SoftMax Pro software at 560 nm (excitation) and 590 nm (emission). IC50s were generated as an average of duplicates and represents the concentration of test compound that achieves 50% inhibition of cellular proliferation compared to control.

[1] = target: kinase panel containing either 359 or 386 distinct kinases; experiment: Competition binding assay, selectivity score (S10) against a panel of kinases; settings: compounds at 10 μM; fraction of kinases with percent of control less than 10
Protocol: Competition binding assays used herein were developed, validated and performed as described in Fabian et al., Nature Biotechnology 2005, 23, 329-336. Kinases were produced as fusions to T7 phage (See, Fabian et al. or WO04/015142) or alternatively, the kinases were expressed in HEK-293 cells and subsequently tagged with DNA for PCR detection (See, WO08/005,310). […] The liganded beads were blocked with excess biotin and washed with blocking buffer (SeaBlock (Pierce), 1% BSA, 0.05% Tween 20, 1 mM DTT) to remove unbound ligand and to reduce non-specific binding. […] Test compounds were prepared as 100× stocks in DMSO and diluted into the aqueous environment. Kds were determined using an eleven point threefold serial dilutions. DMSO or control compounds were was added to control assays lacking a test compound. Primary screen assays were performed in polypropylene 384-well plates in a final volume of 20-40 μL, while Kd determinations were performed in polystyrene 96-well plates in a final volume of […]. […] The kinase concentration in the eluates was measured by quantitative PCR.
A selectivity score (S10) is a quantitative measure of selectivity of a compound against a panel of kinases. An S10 was calculated for a compound by dividing the number of kinases found to have a percent of control (DMSO) less than 10 by the total number of distinct kinases tested (excluding mutant variants). Percent of control (POC) is calculated by subtracting the signal of the control compound
(POC=0) from the signal of the test compound and dividing the outcome by the signal of DMSO (POC=100) minus the signal of the control compound. For the compounds disclosed herein, S10 scores were obtained by testing the compounds at 10 μM concentration in a kinase panel containing either 359 or 386 distinct kinases.

T1 sequence (P07333 20-972): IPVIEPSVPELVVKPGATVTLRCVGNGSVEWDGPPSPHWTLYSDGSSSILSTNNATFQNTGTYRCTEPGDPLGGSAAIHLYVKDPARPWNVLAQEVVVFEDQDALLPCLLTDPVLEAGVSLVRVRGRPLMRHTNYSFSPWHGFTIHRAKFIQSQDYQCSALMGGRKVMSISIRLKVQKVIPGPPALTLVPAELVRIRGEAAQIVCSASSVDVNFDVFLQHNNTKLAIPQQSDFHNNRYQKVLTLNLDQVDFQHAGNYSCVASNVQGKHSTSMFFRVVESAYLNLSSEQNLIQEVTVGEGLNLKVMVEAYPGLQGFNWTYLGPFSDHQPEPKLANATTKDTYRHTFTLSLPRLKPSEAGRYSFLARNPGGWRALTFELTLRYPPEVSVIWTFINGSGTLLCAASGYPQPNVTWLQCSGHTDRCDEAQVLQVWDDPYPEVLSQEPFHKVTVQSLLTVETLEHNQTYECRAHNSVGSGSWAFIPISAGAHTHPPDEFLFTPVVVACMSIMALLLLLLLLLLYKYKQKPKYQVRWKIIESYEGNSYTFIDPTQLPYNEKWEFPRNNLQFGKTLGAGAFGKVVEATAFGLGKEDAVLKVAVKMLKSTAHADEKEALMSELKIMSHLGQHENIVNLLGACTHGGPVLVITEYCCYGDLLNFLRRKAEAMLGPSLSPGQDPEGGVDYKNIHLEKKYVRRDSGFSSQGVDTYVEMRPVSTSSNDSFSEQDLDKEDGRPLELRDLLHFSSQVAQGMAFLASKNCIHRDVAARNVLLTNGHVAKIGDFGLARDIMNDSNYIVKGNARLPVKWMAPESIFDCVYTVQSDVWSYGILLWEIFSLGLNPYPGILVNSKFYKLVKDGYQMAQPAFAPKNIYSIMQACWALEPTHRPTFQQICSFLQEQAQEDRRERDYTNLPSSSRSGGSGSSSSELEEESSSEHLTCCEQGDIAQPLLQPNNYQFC

| SMILES | Kd (CSF1R (human)) [nM] | Kd (CSF1R (mouse)) [nM] | IC50 (M-NFS-60 cells) [nM] | Kinase Specificity (S10) [1] | CSF1R Cell Proliferation (M-NFS-60) IC50 (nM) (M-NFS-60 cells) |
| --- | --- | --- | --- | --- | --- |
| CN1CCC(Oc2ccnc(C(=O)Nc3ccc(NC(=O)Nc4cc(C(C)(C)C)on4)cc3)c2)CC1 | 3 to 10 | 3 to 10 | 250 to 1000 | B (0.03 < B ≦ 0.05) |  |
| CN1CCN(c2cccc(C(=O)Nc3ccc(NC(=O)Nc4cc(C(C)(C)C)on4)cc3)n2)CC1 | 3 to 10 | 3 to 10 | > 1000 | B (0.03 < B ≦ 0.05) |  |
| CCN(CC)Cc1ccnc(C(=O)Nc2ccc(NC(=O)Nc3cc(C(C)(C)C)on3)cc2)c1 | 3 to 10 | 3 to 10 | 250 to 1000 | A (A ≦ 0.03) |  |
| CN1CCN(c2ccc(C(=O)Nc3ccc(NC(=O)Nc4cc(C(C)(C)C)on4)cc3)nc2)CC1 | < 3 | < 3 | ≤ 100 | C (C > 0.05) |  |
| CC(C)(C)OC(=O)N1CCC(Oc2ccc(C(=O)N[C@H]3CC[C@H](NC(=O)Nc4cc(C(C)(C)C)on4)CC3)nc2)CC1 | > 10 | 3 to 10 | 250 to 1000 | A (A ≦ 0.03) |  |
| CC(C)(C)c1cc(NC(=O)N[C@H]2CC[C@H](NC(=O)c3ccc(OC4CCNCC4)cn3)CC2)no1 | 3 to 10 | 3 to 10 | > 1000 | A (A ≦ 0.03) |  |
| CCN1CCC(Oc2ccc(C(=O)N[C@H]3CC[C@H](NC(=O)Nc4cc(C(C)(C)C)on4)CC3)nc2)CC1 | 3 to 10 | 3 to 10 | 250 to 1000 | A (A ≦ 0.03) |  |
| CC(C)(C)c1cc(NC(=O)Nc2ccc(NC(=O)c3ccc(CC4CCNCC4)cn3)cc2)no1 | < 3 | < 3 | 100 to 250 | A (A ≦ 0.03) |  |
| CN1CCC(c2ccc(C(=O)Nc3ccc(NC(=O)Nc4cc(C(C)(C)C)on4)cc3)nc2)CC1 | 3 to 10 | 3 to 10 | ≤ 100 | B (0.03 < B ≦ 0.05) |  |
| CC(C)(C)c1cc(NC(=O)Nc2ccc(NC(=O)c3cccc(OC4CCNCC4)n3)cc2)no1 | > 10 | > 10 | > 1000 | B (0.03 < B ≦ 0.05) |  |
| CCN1CCC(Oc2ccc(C(=O)Nc3ccc(NC(=O)Nc4cc(C(C)(CF)CF)on4)cc3)nc2)CC1 | < 3 | < 3 | ≤ 100 | B (0.03 < B ≦ 0.05) |  |
| CN1CCC(Oc2ccc(C(=O)Nc3ccc(NC(=O)Nc4cc(C(C)(CF)CF)on4)cc3)nc2)CC1 | < 3 | < 3 | ≤ 100 | B (0.03 < B ≦ 0.05) |  |
| CC(CF)(CF)c1cc(NC(=O)Nc2ccc(NC(=O)c3ccc(OC4CCN(CC(F)(F)F)CC4)cn3)cc2)no1 | < 3 | < 3 | 100 to 250 | A (A ≦ 0.03) |  |
| CC(C)N1CCC(Oc2ccc(C(=O)Nc3ccc(NC(=O)Nc4cc(C(C)(CF)CF)on4)cc3)nc2)CC1 | < 3 | < 3 | ≤ 100 | B (0.03 < B ≦ 0.05) |  |
| CCN(CC)Cc1cccc(C(=O)Nc2ccc(NC(=O)Nc3cc(C(C)(C)C)on3)cc2)n1 | > 10 | > 10 | > 1000 | A (A ≦ 0.03) |  |
| CN1C(C)(C)CC(Oc2ccc(C(=O)Nc3ccc(NC(=O)Nc4cc(C(C)(C)F)no4)cc3)nc2)CC1(C)C | < 3 |  | ≤ 100 | A (A ≦ 0.03) |  |
| CC(C)(C)c1cc(NC(=O)Nc2ccc(NC(=O)c3cc(OCCN4CCOCC4)ccn3)cc2)no1 | 3 to 10 | < 3 |  | A (A ≦ 0.03) | B/C |
| CC(C)(C)c1cc(NC(=O)Nc2ccc(NC(=O)c3ccc(CN4CCOCC4)cn3)cc2)no1 | 3 to 10 | 3 to 10 | 100 to 250 | A (A ≦ 0.03) |  |
| CC(C)(C)c1cc(NC(=O)Nc2ccc(NC(=O)c3cccc(OCCN4CCOCC4)n3)cc2)no1 | > 10 | > 10 | > 1000 | A (A ≦ 0.03) |  |
| CC(C)(C)c1cc(NC(=O)Nc2ccc(NC(=O)c3cccc(CN4CCOCC4)n3)cc2)no1 | > 10 | > 10 | > 1000 | B (0.03 < B ≦ 0.05) |  |
